System: 699152-130-R-J1-PDC complex spheroid viability
Assay: Anticancer human tumor 699152-130-R-J1-PDC patient-derived pancreatic carcinoma cell line growth inhibition [POLQ]
Conditions: for IC50: curve of first compound; for viability, T/C: stronger effect = lower value
How it was run: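 Patient-derived tumour cells were co-cultured with HUVEC and mesenchymal stem cells as multicellular spheroids at 37 °C. They were treated with POLQ inhibitors (novobiocin, ART-558, RP6685) alone or combined with other agents. Top concentrations were at or near clinical Cmax (otherwise 10 microM; SN-38 at 1 microM), decreasing in half-log steps.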

[1] = second compound 0.0316 µM, first compound 0.0316 µM
[2] = second compound 0.0316 µM, first compound 0.1 µM
[3] = second compound 0.0316 µM, first compound 0.316 µM
[4] = second compound 0.0316 µM, first compound 1 µM
[5] = second compound 0.0316 µM, first compound 3.16 µM
[6] = second compound 0.0316 µM, first compound 10 µM
[7] = second compound 0.1 µM, first compound 0.0316 µM
[8] = second compound 0.1 µM, first compound 0.1 µM
[9] = second compound 0.1 µM, first compound 0.316 µM
[10] = second compound 0.1 µM, first compound 1 µM
[11] = second compound 0.1 µM, first compound 3.16 µM
[12] = second compound 0.1 µM, first compound 10 µM
[13] = second compound 0.316 µM, first compound 0.0316 µM
[14] = second compound 0.316 µM, first compound 0.1 µM
[15] = second compound 0.316 µM, first compound 0.316 µM
[16] = second compound 0.316 µM, first compound 1 µM
[17] = second compound 0.316 µM, first compound 3.16 µM
[18] = second compound 0.316 µM, first compound 10 µM
[19] = second compound 1 µM, first compound 0.0316 µM
[20] = second compound 1 µM, first compound 0.1 µM
[21] = second compound 1 µM, first compound 0.316 µM
[22] = second compound 1 µM, first compound 1 µM
[23] = second compound 1 µM, first compound 3.16 µM
[24] = second compound 1 µM, first compound 10 µM
[25] = second compound 3.16 µM, first compound 0.0316 µM
[26] = second compound 3.16 µM, first compound 0.1 µM
[27] = second compound 3.16 µM, first compound 0.316 µM
[28] = second compound 3.16 µM, first compound 1 µM
[29] = second compound 3.16 µM, first compound 3.16 µM
[30] = second compound 3.16 µM, first compound 10 µM
[31] = second compound 10 µM, first compound 0.0316 µM
[32] = second compound 10 µM, first compound 0.1 µM
[33] = second compound 10 µM, first compound 0.316 µM
[34] = second compound 10 µM, first compound 1 µM
[35] = second compound 10 µM, first compound 3.16 µM
[36] = second compound 10 µM, first compound 10 µM
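Note: spheroids exposed to agents for 7 days before viability reading.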
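Throughout, for viability, T/C: percent of DMSO vehicle control viability so 100% = vehicle and 0% = no viable signal.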

With `CCc1cc2c(N3CCc4c(cc(Cn5ccnc5)cc4-c4cn(C)nc4C(F)(F)F)C3=O)ccnc2c(OC)n1` + Nc1ccc(C#CCN(C(=O)Cc2ncc(C(F)(F)F)cc2C(F)(F)F)c2ccc(F)cc2)nn1 the IC50 (second compound 0.0316 µM) was > 10 µM, the IC50 (second compound 0.1 µM) was > 10 µM and the IC50 (second compound 0.316 µM) was > 10 µM. The IC50 (second compound 1 µM) was > 10 µM, the IC50 (second compound 3.16 µM) was > 10 µM and the IC50 (second compound 10 µM) was > 10 µM. The viability, T/C [1] was 93.3%, the viability, T/C [2] was 87.5% and the viability, T/C [3] was 91.8%. For the same compound, the viability, T/C [4] was 89.9%, the viability, T/C [5] was 102% and the viability, T/C [6] was 99.6%. The viability, T/C [7] was 88.4%, the viability, T/C [8] was 90% and the viability, T/C [9] was 89.4%. The viability, T/C [10] was 98%, the viability, T/C [11] was 101% and the viability, T/C [12] was 100%. It also gave a viability, T/C [13] of 86.2%, a viability, T/C [14] of 93.5% and a viability, T/C [15] of 93.6%. It also gave a viability, T/C [16] of 95.4%, a viability, T/C [17] of 106% and a viability, T/C [18] of 99.1%. For the same compound, the viability, T/C [19] was 92.5%, the viability, T/C [20] was 91.2% and the viability, T/C [21] was 107%. The viability, T/C [22] was 94.7%, the viability, T/C [23] was 106% and the viability, T/C [24] was 98.8%. For the same compound, the viability, T/C [25] was 88%, the viability, T/C [26] was 88.5% and the viability, T/C [27] was 96.4%. For the same compound, the viability, T/C [28] was 102%, the viability, T/C [29] was 107% and the viability, T/C [30] was 104%. For the same compound, the viability, T/C [31] was 101%, the viability, T/C [32] was 102% and the viability, T/C [33] was 111%. For the same compound, the viability, T/C [34] was 111%, the viability, T/C [35] was 109% and the viability, T/C [36] was 110%.
For `COc1cc2cc(C(=O)CCC(=O)O)sc2cc1OC` + Nc1ccc(C#CCN(C(=O)Cc2ncc(C(F)(F)F)cc2C(F)(F)F)c2ccc(F)cc2)nn1, the IC50 (second compound 0.0316 µM) was > 10 µM, the IC50 (second compound 0.1 µM) was > 10 µM and the IC50 (second compound 0.316 µM) was > 10 µM. The IC50 (second compound 1 µM) was > 10 µM, the IC50 (second compound 3.16 µM) was > 10 µM and the IC50 (second compound 10 µM) was > 10 µM. For the same compound, the viability, T/C [1] was 88.3%, the viability, T/C [2] was 94% and the viability, T/C [3] was 90.2%. The viability, T/C [4] was 98.3%, the viability, T/C [5] was 102% and the viability, T/C [6] was 88.9%. The viability, T/C [7] was 99%, the viability, T/C [8] was 93.8% and the viability, T/C [9] was 95.5%. For the same compound, the viability, T/C [10] was 110%, the viability, T/C [11] was 107% and the viability, T/C [12] was 106%. The viability, T/C [13] was 104%, the viability, T/C [14] was 97.3% and the viability, T/C [15] was 90.3%. The viability, T/C [16] was 105%, the viability, T/C [17] was 105% and the viability, T/C [18] was 104%. For the same compound, the viability, T/C [19] was 102%, the viability, T/C [20] was 94.2% and the viability, T/C [21] was 133%. It also gave a viability, T/C [22] of 96.9%, a viability, T/C [23] of 110% and a viability, T/C [24] of 97.8%. For the same compound, the viability, T/C [25] was 119%, the viability, T/C [26] was 122% and the viability, T/C [27] was 104%. It also gave a viability, T/C [28] of 102%, a viability, T/C [29] of 91.8% and a viability, T/C [30] of 102%. For the same compound, the viability, T/C [31] was 114%, the viability, T/C [32] was 124% and the viability, T/C [33] was 121%. For the same compound, the viability, T/C [34] was 111%, the viability, T/C [35] was 112% and the viability, T/C [36] was 109%.
`COc1cc(C2c3cc4c(cc3C(OC3OC5COC(C)OC5C(O)C3O)C3COC(=O)C23)OCO4)cc(OC)c1O` (stereo not drawn) + Nc1ccc(C#CCN(C(=O)Cc2ncc(C(F)(F)F)cc2C(F)(F)F)c2ccc(F)cc2)nn1 was tested, and the IC50 (second compound 0.0316 µM) was 9.72 µM, the IC50 (second compound 0.1 µM) was 5.57 µM and the IC50 (second compound 0.316 µM) was 3.86 µM. The IC50 (second compound 1 µM) was 4.26 µM, the IC50 (second compound 3.16 µM) was 6.31 µM and the IC50 (second compound 10 µM) was 8.26 µM. The viability, T/C [1] was 85.2%, the viability, T/C [2] was 84.2% and the viability, T/C [3] was 79.5%. It also gave a viability, T/C [4] of 76.3%, a viability, T/C [5] of 53.9% and a viability, T/C [6] of 50.1%. For the same compound, the viability, T/C [7] was 105%, the viability, T/C [8] was 89% and the viability, T/C [9] was 77.9%. For the same compound, the viability, T/C [10] was 70.5%, the viability, T/C [11] was 52.5% and the viability, T/C [12] was 44.9%. The viability, T/C [13] was 108%, the viability, T/C [14] was 90.6% and the viability, T/C [15] was 79.8%. For the same compound, the viability, T/C [16] was 69.1%, the viability, T/C [17] was 48.1% and the viability, T/C [18] was 41.2%. For the same compound, the viability, T/C [19] was 92.2%, the viability, T/C [20] was 81.9% and the viability, T/C [21] was 78%. For the same compound, the viability, T/C [22] was 74.9%, the viability, T/C [23] was 49.6% and the viability, T/C [24] was 48.8%. It also gave a viability, T/C [25] of 103%, a viability, T/C [26] of 85% and a viability, T/C [27] of 81%. It also gave a viability, T/C [28] of 69.2%, a viability, T/C [29] of 53.1% and a viability, T/C [30] of 46.8%. The viability, T/C [31] was 115%, the viability, T/C [32] was 85.6% and the viability, T/C [33] was 89.4%. The viability, T/C [34] was 65.8%, the viability, T/C [35] was 53% and the viability, T/C [36] was 50.7%.
`CC1COCCN1c1cc(C2(O)CC3CCC(C2)O3)c2cnn(-c3ccn[nH]3)c2n1` (stereo not drawn) + Cc1cccc(N(C)C(=O)C2C(O)CCN2c2nc(C)cc(C(F)(F)F)c2C#N)c1 gave an IC50 (second compound 0.0316 µM) of 1.99 µM, an IC50 (second compound 0.1 µM) of 1.2 µM and an IC50 (second compound 0.316 µM) of 1.05 µM. It also gave an IC50 (second compound 1 µM) of 1.69 µM, an IC50 (second compound 3.16 µM) of 1.74 µM and an IC50 (second compound 10 µM) of 1.94 µM. The viability, T/C [1] was 92.1%, the viability, T/C [2] was 83.9% and the viability, T/C [3] was 64.9%. The viability, T/C [4] was 60.6%, the viability, T/C [5] was 44.5% and the viability, T/C [6] was 33.1%. The viability, T/C [7] was 94.6%, the viability, T/C [8] was 78.7% and the viability, T/C [9] was 60.9%. For the same compound, the viability, T/C [10] was 52.2%, the viability, T/C [11] was 44% and the viability, T/C [12] was 38.6%. The viability, T/C [13] was 93%, the viability, T/C [14] was 94% and the viability, T/C [15] was 64.6%. It also gave a viability, T/C [16] of 54.3%, a viability, T/C [17] of 47.4% and a viability, T/C [18] of 39.7%. For the same compound, the viability, T/C [19] was 96.3%, the viability, T/C [20] was 83.1% and the viability, T/C [21] was 66.4%. It also gave a viability, T/C [22] of 52.8%, a viability, T/C [23] of 47.5% and a viability, T/C [24] of 37.8%. It also gave a viability, T/C [25] of 98.2%, a viability, T/C [26] of 87.2% and a viability, T/C [27] of 62.3%. It also gave a viability, T/C [28] of 58.8%, a viability, T/C [29] of 45% and a viability, T/C [30] of 33.6%. The viability, T/C [31] was 84.6%, the viability, T/C [32] was 81.8% and the viability, T/C [33] was 69.7%. It also gave a viability, T/C [34] of 57.3%, a viability, T/C [35] of 44.9% and a viability, T/C [36] of 39.1%.

— PubChem BioAssay AID1963835 (Molecular Pharmacology Branch, DTP, NCI, 2024)
